What all share (assay type): cell-based
One assay deals with T1, human GIP R (Homo sapiens, UniProt P48546).
T1 construct: expressed in transfected cells
T1 sequence (P48546 22-466): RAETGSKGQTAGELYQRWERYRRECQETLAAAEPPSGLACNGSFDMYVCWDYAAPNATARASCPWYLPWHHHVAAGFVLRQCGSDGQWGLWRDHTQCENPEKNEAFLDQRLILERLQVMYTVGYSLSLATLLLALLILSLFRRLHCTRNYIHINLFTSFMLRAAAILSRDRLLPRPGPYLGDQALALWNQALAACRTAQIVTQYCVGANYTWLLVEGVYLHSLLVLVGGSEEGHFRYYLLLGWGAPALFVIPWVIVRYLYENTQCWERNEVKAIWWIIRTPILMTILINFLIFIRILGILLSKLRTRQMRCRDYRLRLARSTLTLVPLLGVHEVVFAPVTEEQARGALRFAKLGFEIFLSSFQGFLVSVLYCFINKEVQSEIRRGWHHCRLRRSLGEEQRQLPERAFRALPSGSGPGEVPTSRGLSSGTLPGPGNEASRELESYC
The assay can be described thus: cAMP induction in HEK293 cells expressing human GIP R (AlphaScreen cAMP kit). A general note: Bead proximity is the source of the signal in Alpha formats.

The next assay deals with T2, human GLP-1 R (Homo sapiens, UniProt P43220).
T2 construct: expressed in transfected cells
The assay can be described thus: cAMP induction in HEK293 cells expressing human GLP-1 R (AlphaScreen cAMP kit). The following applies: average EC50, cAMP, HEK293 cells expressing human GLP-1 R, read-out: GLP1 R (EC50 in nM).

The target of a further assay is T3, human GCG R (Homo sapiens, UniProt P47871).
T3 construct: expressed in transfected cells
The experiment in a line: cAMP induction in HEK293 cells expressing human GCG R (AlphaScreen cAMP kit).

The mark [1] stands for this setting: Table 2b (most comprehensive data).
Where [2] appears, read: GIP R (EC50 in nM), Table 2, average EC50, cAMP.

Read-outs that look alike come from different tables or passages of the source. Numbered stars: 1 amine (or outer) side, 2 acyl side, 3 side chain; on linkers, the order of the positions; unused ones are H or OH. Square brackets hold non-standard residues; d marks the D form. Side chains are listed from the residue outwards. Peptide text beside a SMILES is read from it. * marks the point of attachment. C18 diacid = O=C(O)CCCCCCCCCCCCCCCCC(=O)*; γGlu = O=C(O)[C@H](CCC(=O)[*:2])N[*:1]; AEEA = NCCOCCOCC(=O)O; Aib = CC(C)(N)C(=O)O

T2 sequence (P43220 24-463): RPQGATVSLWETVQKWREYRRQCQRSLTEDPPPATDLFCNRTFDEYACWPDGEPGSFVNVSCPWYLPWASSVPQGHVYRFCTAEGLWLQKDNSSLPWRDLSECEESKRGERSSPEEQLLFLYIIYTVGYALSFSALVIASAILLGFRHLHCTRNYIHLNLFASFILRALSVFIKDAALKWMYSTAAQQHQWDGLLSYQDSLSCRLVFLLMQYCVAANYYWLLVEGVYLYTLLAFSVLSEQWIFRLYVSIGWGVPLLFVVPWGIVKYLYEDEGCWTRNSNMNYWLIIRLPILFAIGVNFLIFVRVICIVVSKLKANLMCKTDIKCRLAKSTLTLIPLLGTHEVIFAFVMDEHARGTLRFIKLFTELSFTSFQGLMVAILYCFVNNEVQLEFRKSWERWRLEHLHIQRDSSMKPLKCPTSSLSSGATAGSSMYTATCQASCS
T3 sequence (P47871 26-477): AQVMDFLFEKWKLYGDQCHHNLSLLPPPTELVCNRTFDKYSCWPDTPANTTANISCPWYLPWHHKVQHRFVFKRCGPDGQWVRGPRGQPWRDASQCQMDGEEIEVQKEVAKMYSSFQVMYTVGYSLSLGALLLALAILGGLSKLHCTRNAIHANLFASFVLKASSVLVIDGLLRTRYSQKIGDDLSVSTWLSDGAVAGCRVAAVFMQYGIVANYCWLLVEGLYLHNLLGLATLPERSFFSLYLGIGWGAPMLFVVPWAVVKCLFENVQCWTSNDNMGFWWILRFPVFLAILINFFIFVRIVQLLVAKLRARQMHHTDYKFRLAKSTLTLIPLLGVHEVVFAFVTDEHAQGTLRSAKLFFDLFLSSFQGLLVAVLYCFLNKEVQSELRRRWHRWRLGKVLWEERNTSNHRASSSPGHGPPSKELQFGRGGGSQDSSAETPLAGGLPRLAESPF
Procedure for human GIP R: Briefly, HEK293 cells expressing the human GIP R, GLP-1 R or GCG R (stable cell lines generated through transfection of the cDNA for human GIP R, GLP-1 R or GCG R and selection of stable clones) were seeded at 30,000 cells/well in 96-well microtiter plates coated with 0.01% poly-L-lysine, and grown for 1 day in culture in 200 μl growth medium (DMEM, 10% FCS, Penicillin (100 IU/ml), Streptomycin (100 μg/ml)). On the day of analysis, growth medium was removed and the cells were washed once with 150 μl Tyrode's buffer (Tyrode's Salts (9.6 g/l), 10 mM HEPES, pH 7.4). […] The Assay buffer was removed and cells are lysed in 80 μl Lysis buffer (0.1% w/v BSA, 5 mM HEPES, 0.3% v/v Tween-20) per well. From each well 10 μl of lysed cells were transferred to a 384-well plate and mixed with 15 μl bead-mix (1 Unit/15 μl anti-cAMP Acceptor Beads, 1 Unit/15 μl Donor Beads, and 1 Unit/15 μl Biotinylated cAMP in Assay Buffer). The plates were mixed and incubated in the dark for an hour at room temperature before measuring using an Envision™ plate reader (Perkin-Elmer).
The resulting cAMP curves were plotted as absolute cAMP concentrations (nM) over log (test compound concentration) and analyzed using the curve fitting program XLfit.
Parameters calculated to describe both the potency as well as the agonistic activity of each test compound on the receptors were:
EC50, a concentration resulting in a half-maximal elevation of cAMP levels, reflecting the potency of the test compound.

By EC50 is commonly meant the concentration giving half of the maximal effect. Take `CC[C@H](C)[C@H](NC(=O)[C@H](CO)NC(=O)[C@H](Cc1ccc(O)cc1)NC(=O)[C@H](CC(=O)O)NC(=O)[C@H](CO)NC(=O)[C@@H](NC(=O)[C@H](Cc1ccccc1)NC(=O)[C@@H](NC(=O)CNC(=O)[C@H](CCC(N)=O)NC(=O)C(C)(C)NC(=O)[C@@H](N)Cc1ccc(O)cc1)[C@@H](C)O)[C@@H](C)O)C(=O)N[C@@H](Cc1ccc(O)cc1)C(=O)N[C@@H](CC(C)C)C(=O)N[C@@H](CCC(=O)O)C(=O)N[C@@H](CCCCN)C(=O)N[C@@H](CCCCNC(=O)COCCOCCNC(=O)COCCOCCNC(=O)CC[C@H](NC(=O)CCCCCCCCCCCCCCCCC(=O)O)C(=O)O)C(=O)N[C@@H](C)C(=O)N[C@@H](C)C(=O)N[C@@H](CCCCN)C(=O)N[C@@H](CCC(=O)O)C(=O)N[C@@H](Cc1ccccc1)C(=O)N[C@H](C(=O)N[C@@H](CCC(=O)O)C(=O)N[C@@H](Cc1c[nH]c2ccccc12)C(=O)N[C@@H](CC(C)C)C(=O)N[C@@H](CC(C)C)C(=O)N[C@@H](CO)C(=O)N[C@@H](C)C(=O)NCC(=O)N1CCC[C@H]1C(=O)N[C@@H](CO)C(=O)N[C@@H](CO)C(=O)NCC(=O)N[C@@H](C)C(=O)N1CCC[C@H]1C(=O)N1CCC[C@H]1C(=O)N1CCC[C@H]1C(=O)N[C@@H](CO)C(N)=O)C(C)C` [Compound 38] (H-Y[Aib]QGTFTSDYSIYLEKK([AEEA-AEEA-γGlu-C18 diacid])AAKEFVEWLLSAGPSSGAPPPS-NH2): the concentration giving a half-maximal response (EC50) at human GIP R (Table 2b (most comprehensive data), average EC50, cAMP, read-out: GIP R (EC50 in nM)) is 0.064 nM; on human GLP-1 R (setting [1]) it was 0.015 nM; on human GCG R (Table 2b (most comprehensive data), average EC50, cAMP, HEK293 cells expressing human GCG R, read-out: GCG R (EC50 in nM)), 0.27 nM.

On to `CCCCCCCCCCCCCCCC(=O)N[C@@H](CCC(=O)NCCCC[C@H](NC(=O)[C@H](CO)NC(=O)[C@H](CC(=O)O)NC(=O)[C@H](CC(C)C)NC(=O)[C@H](Cc1ccc(O)cc1)NC(=O)[C@H](CCCCN)NC(=O)[C@H](CO)NC(=O)[C@H](Cc1ccc(O)cc1)NC(=O)[C@H](CC(=O)O)NC(=O)[C@H](CO)NC(=O)[C@@H](NC(=O)[C@H](Cc1ccccc1)NC(=O)[C@@H](NC(=O)CNC(=O)[C@H](CCC(N)=O)NC(=O)C(C)(C)NC(=O)[C@@H](N)Cc1ccc(O)cc1)[C@@H](C)O)[C@@H](C)O)C(=O)N[C@@H](C)C(=O)N[C@@H](C)C(=O)N[C@@H](Cc1c[nH]cn1)C(=O)N[C@@H](CC(=O)O)C(=O)N[C@@H](Cc1ccccc1)C(=O)N[C@H](C(=O)N[C@@H](CCC(=O)O)C(=O)N[C@@H](Cc1c[nH]c2ccccc12)C(=O)N[C@@H](CC(C)C)C(=O)N[C@@H](CC(C)C)C(=O)N[C@@H](CO)C(=O)N[C@@H](C)C(N)=O)C(C)C)C(=O)O` [Compound 2] (HELM PEPTIDE1{Y.[Aib].Q.G.T.F.T.S.D.Y.S.K.Y.L.D.S.K.A.A.H.D.F.V.E.W.L.L.S.A.[am]}|PEPTIDE2{[CCCCCCCCCCCCCCCC(=O)[*:2]].[gGlu]}$PEPTIDE1,PEPTIDE2,17:R3-2:R2$$$V2.0), for which the EC50 stood at 0.35 nM at human GIP R (setting [2]), 0.089 nM at human GLP-1 R (Table 2) and 0.046 nM on human GCG R.

For `CC[C@H](C)[C@H](NC(=O)[C@H](CO)NC(=O)[C@H](Cc1ccc(O)cc1)NC(=O)[C@H](CC(=O)O)NC(=O)[C@H](CO)NC(=O)[C@@H](NC(=O)[C@H](Cc1ccccc1)NC(=O)[C@@H](NC(=O)CNC(=O)[C@H](CCC(N)=O)NC(=O)C(C)(C)NC(=O)[C@@H](N)Cc1ccc(O)cc1)[C@@H](C)O)[C@@H](C)O)C(=O)N[C@@H](Cc1ccc(O)cc1)C(=O)N[C@@H](CC(C)C)C(=O)N[C@@H](CC(=O)O)C(=O)N[C@@H](CO)C(=O)N[C@@H](CCCCN)C(=O)N[C@@H](C)C(=O)N[C@@H](C)C(=O)N[C@@H](Cc1c[nH]cn1)C(=O)N[C@@H](CC(=O)O)C(=O)N[C@@H](Cc1ccccc1)C(=O)N[C@H](C(=O)N[C@@H](CC(N)=O)C(=O)N[C@@H](Cc1c[nH]c2ccccc12)C(=O)N[C@@H](CC(C)C)C(=O)N[C@@H](CC(C)C)C(=O)N[C@@H](CO)C(=O)N[C@@H](C)C(N)=O)C(C)C` [Compound 11] (HELM PEPTIDE1{Y.[Aib].Q.G.T.F.T.S.D.Y.S.I.Y.L.D.S.K.A.A.H.D.F.V.N.W.L.L.S.A.[am]}$$$$V2.0), the EC50 at human GIP R (setting [2]) was 0.28 nM; on human GLP-1 R (Table 2), 0.02 nM; at human GLP-1 R (setting [1]), 0.11 nM; at human GCG R it was 0.11 nM.

These data come from patent US10131702B2, “Glucagon-GLP-1-GIP triple agonist compounds” (priority 2013, dated 2018).
